Experimental data as given in PubChem BioAssay (NCI).
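Dose response: 5 concentrations. Exposure: 48 h. Format: 96-well plates. Endpoint: linear interpolation; highest concentration if not reached. GI50: concentration for 50% inhibition of growth. At the TGI there is no net growth.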

Key:
Assay in all cases: NCI anticancer screen, dose series, 48 h
NCI-H460 lung = system: NCI-H460 lung
T-47D breast = system: T-47D breast
KM12 colon = system: KM12 colon
HL-60(TB) leukemia = system: HL-60(TB) leukemia
MDA-MB-231 breast = system: MDA-MB-231 breast
COLO 205 colon = system: COLO 205 colon
SN12C renal = system: SN12C renal
CCRF-CEM leukemia = system: CCRF-CEM leukemia
RXF 393 renal = system: RXF 393 renal
OVCAR-3 ovarian = system: OVCAR-3 ovarian

SMILES: O=C(CCl)N1c2ccccc2Sc2ccc3ccccc3c21
- GI50 (NCI-H460 lung): 1.89 µM
- TGI (NCI-H460 lung): 3.82 µM
- GI50 (T-47D breast): 1.66 µM
- TGI (T-47D breast): 3.69 µM
- GI50 (KM12 colon): 1.82 µM
- TGI (KM12 colon): 3.35 µM
- GI50 (HL-60(TB) leukemia): 1.07 µM
- TGI (HL-60(TB) leukemia): 5.13 µM
- GI50 (MDA-MB-231 breast): 1.64 µM
- TGI (MDA-MB-231 breast): 3.14 µM
- GI50 (COLO 205 colon): 1.69 µM
- TGI (COLO 205 colon): 3.14 µM
- GI50 (SN12C renal): 1.59 µM
- TGI (SN12C renal): 2.98 µM
- GI50 (CCRF-CEM leukemia): 0.22 µM
- TGI (CCRF-CEM leukemia): 0.533 µM
- GI50 (RXF 393 renal): 1.49 µM
- TGI (RXF 393 renal): 2.83 µM
- GI50 (OVCAR-3 ovarian): 1.36 µM
- TGI (OVCAR-3 ovarian): 2.72 µM

SMILES: O=C(O)c1cc2cc(OCc3ccccc3)c(OCc3ccccc3)cc2[nH]1
- GI50 (NCI-H460 lung): 17.8 µM
- TGI (NCI-H460 lung): 33.4 µM
- GI50 (T-47D breast): 23.9 µM
- TGI (T-47D breast): > 100 µM
- GI50 (KM12 colon): 19.3 µM
- TGI (KM12 colon): 36.2 µM
- GI50 (HL-60(TB) leukemia): 22.9 µM
- TGI (HL-60(TB) leukemia): > 100 µM
- GI50 (MDA-MB-231 breast): 28.2 µM
- TGI (MDA-MB-231 breast): 79 µM
- GI50 (COLO 205 colon): 19.9 µM
- TGI (COLO 205 colon): 36.1 µM
- GI50 (SN12C renal): 33.1 µM
- TGI (SN12C renal): > 100 µM
- GI50 (CCRF-CEM leukemia): 33.6 µM
- TGI (CCRF-CEM leukemia): > 100 µM
- GI50 (RXF 393 renal): 14.6 µM
- TGI (RXF 393 renal): 30.4 µM
- GI50 (OVCAR-3 ovarian): 17.3 µM
- TGI (OVCAR-3 ovarian): 31.6 µM

SMILES: Cc1cc(Cc2cc(C)cc(C(C)(C)C)c2O)c(O)c(C(C)(C)C)c1
- GI50 (NCI-H460 lung): 3.64 µM
- TGI (NCI-H460 lung): 12 µM
- GI50 (T-47D breast): 4.7 µM
- TGI (T-47D breast): 16.8 µM
- GI50 (KM12 colon): 3.79 µM
- TGI (KM12 colon): 13.6 µM
- GI50 (HL-60(TB) leukemia): 10.5 µM
- TGI (HL-60(TB) leukemia): > 100 µM
- GI50 (MDA-MB-231 breast): 9.83 µM
- TGI (MDA-MB-231 breast): 21.7 µM
- GI50 (COLO 205 colon): 6.73 µM
- TGI (COLO 205 colon): 19.6 µM
- GI50 (SN12C renal): 11.9 µM
- TGI (SN12C renal): 24.1 µM
- GI50 (CCRF-CEM leukemia): 9.98 µM
- TGI (CCRF-CEM leukemia): > 100 µM
- GI50 (RXF 393 renal): 6.37 µM
- TGI (RXF 393 renal): 18.9 µM
- GI50 (OVCAR-3 ovarian): 3.97 µM
- TGI (OVCAR-3 ovarian): 13.1 µM

SMILES: Cc1cc(C)c(O)c(CN(C)Cc2cc(Cl)cc(Cl)c2O)c1
- GI50 (NCI-H460 lung): 3.49 µM
- TGI (NCI-H460 lung): 13.7 µM
- GI50 (T-47D breast): 4.07 µM
- TGI (T-47D breast): 15.2 µM
- GI50 (KM12 colon): 5.31 µM
- TGI (KM12 colon): 17.7 µM
- GI50 (HL-60(TB) leukemia): 4 µM
- TGI (HL-60(TB) leukemia): 33 µM
- GI50 (MDA-MB-231 breast): 2.97 µM
- TGI (MDA-MB-231 breast): 12.8 µM
- GI50 (COLO 205 colon): 4.99 µM
- TGI (COLO 205 colon): 15.3 µM
- GI50 (SN12C renal): 4.81 µM
- TGI (SN12C renal): 20.4 µM
- GI50 (CCRF-CEM leukemia): 2.7 µM
- TGI (CCRF-CEM leukemia): 14.8 µM
- GI50 (RXF 393 renal): 7.34 µM
- TGI (RXF 393 renal): 23.6 µM
- GI50 (OVCAR-3 ovarian): 2.4 µM
- TGI (OVCAR-3 ovarian): 8.16 µM

SMILES: Cc1ccc2c(O)c(O)cc(NC(C)CCCN)c2n1 (stereo not given)
- GI50 (NCI-H460 lung): 36.4 µM
- TGI (NCI-H460 lung): > 100 µM
- GI50 (T-47D breast): 6.57 µM
- TGI (T-47D breast): 38.3 µM
- GI50 (KM12 colon): 25 µM
- TGI (KM12 colon): 98.9 µM
- GI50 (HL-60(TB) leukemia): 10.7 µM
- TGI (HL-60(TB) leukemia): 37.8 µM
- GI50 (MDA-MB-231 breast): 7.22 µM
- TGI (MDA-MB-231 breast): 74 µM
- GI50 (COLO 205 colon): 3.39 µM
- TGI (COLO 205 colon): 42.5 µM
- GI50 (SN12C renal): 3.89 µM
- TGI (SN12C renal): 24.8 µM
- GI50 (CCRF-CEM leukemia): 3.73 µM
- TGI (CCRF-CEM leukemia): 16.8 µM
- GI50 (RXF 393 renal): > 69.1 µM
- TGI (RXF 393 renal): > 100 µM
- GI50 (OVCAR-3 ovarian): 2.12 µM
- TGI (OVCAR-3 ovarian): 5.26 µM

SMILES: O=C(N/N=C/c1ccccc1O)C(=O)Nc1ccc(F)cc1
- GI50 (NCI-H460 lung): 2.74 µM
- TGI (NCI-H460 lung): > 100 µM
- GI50 (T-47D breast): 6.63 µM
- TGI (T-47D breast): > 100 µM
- GI50 (KM12 colon): 6.97 µM
- TGI (KM12 colon): > 100 µM
- GI50 (HL-60(TB) leukemia): 2.02 µM
- TGI (HL-60(TB) leukemia): 8.75 µM
- GI50 (MDA-MB-231 breast): 3.23 µM
- TGI (MDA-MB-231 breast): > 100 µM
- GI50 (COLO 205 colon): 3.28 µM
- TGI (COLO 205 colon): > 100 µM
- GI50 (SN12C renal): 6.46 µM
- TGI (SN12C renal): > 100 µM
- GI50 (CCRF-CEM leukemia): 1.35 µM
- TGI (CCRF-CEM leukemia): 13.4 µM
- GI50 (RXF 393 renal): 9.93 µM
- TGI (RXF 393 renal): > 100 µM
- GI50 (OVCAR-3 ovarian): 3.18 µM
- TGI (OVCAR-3 ovarian): > 100 µM
